In publication PMC6073580, “DPIE [2-(1,2-diphenyl-1H-indol-3-yl)ethanamine] Augments Pro-Inflammatory Cytokine Production in IL-1β-Stimulated Primary Human Oral Cells” (International Journal of Molecular Sciences, 2018):

Molecular target: T1, IL-1R1 (interleukin-1 receptor, type I) (Homo sapiens, UniProt P14778)
T1 construct: gene IL1R1
T1 sequence (P14778 18-569): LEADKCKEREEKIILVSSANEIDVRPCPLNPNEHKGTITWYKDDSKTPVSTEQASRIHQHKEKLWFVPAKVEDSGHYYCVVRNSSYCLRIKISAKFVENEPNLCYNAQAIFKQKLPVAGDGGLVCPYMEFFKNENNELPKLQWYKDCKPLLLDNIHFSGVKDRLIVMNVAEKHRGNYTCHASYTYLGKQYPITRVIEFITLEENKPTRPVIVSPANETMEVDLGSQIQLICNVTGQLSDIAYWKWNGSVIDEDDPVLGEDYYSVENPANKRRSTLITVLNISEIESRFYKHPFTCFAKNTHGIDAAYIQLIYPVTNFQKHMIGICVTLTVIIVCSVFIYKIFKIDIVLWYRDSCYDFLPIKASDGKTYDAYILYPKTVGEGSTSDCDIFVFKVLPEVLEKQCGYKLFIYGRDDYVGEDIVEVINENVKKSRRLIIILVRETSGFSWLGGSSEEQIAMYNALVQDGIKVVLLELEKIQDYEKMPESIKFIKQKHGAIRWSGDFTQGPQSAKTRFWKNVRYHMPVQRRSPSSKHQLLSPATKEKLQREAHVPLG
Assay: SPR (ProteOn XPR36), IL-1R1 immobilized by amine coupling, […] Langmuir kinetic fit; equilibrium analysis gave […]
Assay type: binding

Q: Which Kd does the source give for `NCCc1c(-c2ccccc2)n(-c2ccccc2)c2ccccc12` [DPIE, 2-(1,2-diphenyl-1H-indol-3-yl)ethanamine] here?
A: The Kd was 316 µM.
